The values that follow come from patent US20240026295A1, “USE OF COMPOUND FOR IMPROVING TRANSPLANTATION EFFICIENCY OF HUMAN HEMATOPOIETIC STEM CELLS” (EDIGENE (GUANGZHOU) INC., priority 2020, published 2024).

The subject of test [1] is surface protein CD184 expression in CD34+HSPCs. Put plainly: Preliminary screening: CD184 mean fluorescence intensity by flow cytometry. In kind it is cell-based, human. The settings on record: 16 hours treatment, three concentrations. The method, then: (§1) According to the counting results in Example 1, 5×10^4CD34+ cells were added to each well of a 24-well plate, and the cells were cultured with 1 ml of complete medium per well for 24 hours.
(§2) The next day, the compound was dissolved in DMSO and mixed, and then diluted with PBS to a specific concentration (see Table 3). An equal volume of 10 μl of the diluted compound per well was added to the cell culture medium, mixed well, and placed in an incubator for 16 hours.
(§3) On the third day, an antibody pre-mixed solution was prepared: a solution of PBS+0.5% BSA was pre-mixed with fluorescent antibody BV510 conjugated anti-human CD34 (Biolegend clone 581), FITC conjugated anti-human CD90 (Biolegend, clone 5E10) and APCCy7 conjugated anti-human CD45RA (Biolegend, clone HI100), 50 μl/ml of each antibody was added, and stored in the dark.
(§4) Cells were collected into centrifuge tubes, centrifuged at 400 g for 5 minutes. The supernatant was removed, added with 50 μl of antibody pre-mixed solution (containing 2.5 μl of each antibody) in each sample, resuspended and incubated at 4° C. for 20 minutes in the dark. The cells were washed with 1 ml of PBS added to each tube, centrifuged at 400 g for 5 minutes and resuspended with 50 μl of PBS+0.5% BSA solution. 2.5 μl of PE-conjugated anti-CD184 antibody (Biolegend, clone 12G5) was added to each sample, incubated at 37° C. for 30 minutes, washed, and stained with 7AAD to identify cell viability. Flow cytometry (Beckman Coulter CytoFLEX) was used to detect cell surface fluorescence, and the mean fluorescence intensity (MFI) and positive ratio of CD184 expression in HSPCs and LT-HSCs were analyzed, respectively. Among them, HSPCs are CD34+ cells, and LT-HSCs are CD34+CD90+CD45RA− cells.
(1) Preliminary screening of compounds: 139 compounds were used for preliminary screening, among which 89 compounds were screened in rounds 1-5, and 50 compounds were screened in rounds 6-9. During the in vitro culture of CD34+HSPCs, they were treated for 16 hours by adding three concentrations of compounds to the complete medium. Then the mean fluorescence intensity of surface protein CD184 expression was detected by flow cytometry. 1.

The test system is the same in test [2]. The experiment in a line: Secondary screening: CD184 mean fluorescence intensity, ratio to control group. In kind it is cell-based, human. The settings on record: high concentration, 16 hours treatment, FIG. 2. The method, then: as §1, §2, §3, §4
(2) Secondary screening of compounds: the 13 compounds obtained from the preliminary screening were further verified using three concentrations of high, medium and low, with three replicates for each concentration. After 16 hours of treatment with the above-mentioned compounds, the average fluorescence intensity of surface protein CD184 expression was detected by flow cytometry. 2. Wherein, the data in the figure are the ratio of the mean CD184 fluorescence intensity of each group to the control group (Mock). (M344 is the positive control group; Mock is the negative control group untreated during culture.)

The subject of test [3] is NPG (NOD-scid Il2rg−/−) immunodeficient mice. The experiment in a line: Transplantation of treated human CD34+HSPCs into irradiated NPG mice. Format: in vivo, mouse. The settings on record: 17 weeks after transplantation; for differentiation of treated HSPCs in bone marrow, spleen and peripheral blood: FIG. 5B to 5D; for transplantation efficiency of cells in the bone marrow of NPG mice (hCD45+/(hCD45+ + mCD45+)×100%): HSPCs treated ex vivo, Mock group 64.7%. The text has this:
The transplantation efficiency of hematopoietic stem cells refers to the ability of hematopoietic stem cells from human donor to effectively migrate to the recipient's bone marrow after intravenous injection into the recipient, maintain growth in the bone marrow microenvironment, and play a role in repopulating of the hematopoietic system. To verify the transplantation efficiency of hematopoietic stem cells in the experiment, human hematopoietic stem cells are transplanted into an immune-deficient mouse model, the blood and immune organs of the recipient mice are detected by flow cytometry, and the content of human donor cells (hCD45 positive cell ratio) is analyzed.
Human CD34+HSPCs treated with Colchicine, Vinblastine sulfate or Lexibulin for a short time, or those in the control group were transplanted into NPG (NOD-scid Il2rg−/−) immunodeficient mice irradiated with 1.0 Gy, 8 mice in each group. 17 weeks after transplantation, cell transplantation efficiency in mouse bone marrow, and distribution proportion of human T cells labeled with human CD3, CD4 and CD8 antibodies, myeloid cells labeled with human CD33 antibody, B cells labeled with CD19 antibody, NK cells labeled with human CD56 antibody, and hematopoietic stem and progenitor cells labeled with human CD34 antibody in bone marrow, peripheral blood, and spleen were detected. The results are shown in FIG. 5A to FIG. 5D, where the transplantation efficiency=hCD45^+proportion/(hCD45^+proportion+mCD45^+proportion)×100%

Where a name gives a salt, the structure may show the parent alone.

Consider `CCC[C@H](Nc1nc(-c2ccc(NC(=O)NCC)c(OC)c2)ncc1C)c1cccnc1` [Lexibulin], for which the “expression of CD184 in CD34+HSPCs (mean fluorescence intensity)” value (shortened to “expression of CD184 in CD34+HSPCs”) in test [1] was “can enhance the expression of CD184”. For the same molecule, the “expression of CD184 relative to positive control M344” value in test [2] is around 2 times. In test [3], the “differentiation of treated HSPCs in bone marrow, spleen and peripheral blood” value (“differentiation of treated HSPCs” below) is “can differentiate into T cells, myeloid cells, B cells and NK cells”; the “transplantation efficiency of cells in the bone marrow of NPG mice (hCD45+/(hCD45+ + mCD45+)×100%)” value is on record as 82.46%.

As for `CC[C@]1(O)C[C@@H]2CN(CCc3c([nH]c4ccccc34)[C@@](C(=O)OC)(c3cc4c(cc3OC)N(C)[C@H]3[C@@](O)(C(=O)OC)[C@H](OC(C)=O)[C@]5(CC)C=CCN6CC[C@]43[C@@H]65)C2)C1` [Vinblastine sulfate], the “expression of CD184 in CD34+HSPCs” value in test [1] is listed as “can enhance the expression of CD184”. In addition, the “expression of CD184 relative to positive control M344” value in test [2] was around 2 times. Also, in test [3], the “differentiation of treated HSPCs” value was “can differentiate into T cells, myeloid cells, B cells and NK cells”; the “transplantation efficiency of cells in the bone marrow of NPG mice (hCD45+/(hCD45+ + mCD45+)×100%)” value stood at 80.73%.

For the molecule `O=C(Nc1cccc2cccnc12)c1ccc(N2C(=O)[C@@H]3[C@H](C2=O)[C@@H]2C=C[C@H]3C2)cc1` [IWR-1-endo], the “expression of CD184 in CD34+HSPCs” value in test [1] is “can enhance the expression of CD184”.

`c1cc(-c2cnn3cc(-c4ccc(N5CCNCC5)cc4)cnc23)c2cccnc2c1` [LND-212854]: in test [1], the “expression of CD184 in CD34+HSPCs” value was “can enhance the expression of CD184”.

For `O=C(NC[C@H](O)CO)c1ccncc1Nc1ccc(I)cc1F` [Pimasertib], in test [1], the “expression of CD184 in CD34+HSPCs” value was “can enhance the expression of CD184”.

On to `COC[C@H]1Cn2cc(-c3nc(Nc4ccnn4C)ncc3C)nc2C(=O)N1Cc1ccc(F)c(F)c1` [AZD0364], for which the “expression of CD184 in CD34+HSPCs” value in test [1] is recorded as “can enhance the expression of CD184”.

As for `COC(=O)Nc1nc2ccc(C(=O)c3cccs3)cc2[nH]1` [Nocodazole], the “expression of CD184 in CD34+HSPCs” value in test [1] is “can enhance the expression of CD184”.

For `COc1cc2c(c(OC)c1OC)-c1ccc(OC)c(=O)cc1[C@@H](NC(C)=O)CC2` [Colchicine], the “expression of CD184 in CD34+HSPCs” value in test [1] is “can enhance the expression of CD184”. Further, in test [2], the “expression of CD184 relative to negative control (Mock)” value turned out to be 2.6 times and the “expression of CD184 relative to positive control M344” value is listed as “comparable effects to M344”. Further, in test [3], the “differentiation of treated HSPCs” value is “can differentiate into T cells, myeloid cells, B cells and NK cells”; the “transplantation efficiency of cells in the bone marrow of NPG mice (hCD45+/(hCD45+ + mCD45+)×100%)” value came out at 65.84%.

As to `C/C(=C\c1ccc(C(=O)O)cc1)c1ccc2c(c1)C(C)(C)CCC2(C)C` [TTNPB], the “expression of CD184 in CD34+HSPCs” value in test [1] was “can enhance the expression of CD184”.

On to `O=C(Nc1ccc2[nH]nc(-c3ccncc3)c2c1)[C@@H]1CCN(CC(=O)N2CCN(c3ccc(-c4ncccn4)cc3)CC2)C1` [SCH772984], for which the “expression of CD184 in CD34+HSPCs” value in test [1] is recorded as “can enhance the expression of CD184”.

For `N#Cc1c(NC(=O)c2cccc3ccccc23)sc2c1CCCC2` [JNK-inhibitor IX], the “expression of CD184 in CD34+HSPCs” value in test [1] is listed as “can enhance the expression of CD184”.

With `Cc1c[nH]c(-c2cnc(NCCNc3ccc(C#N)cn3)nc2-c2ccc(Cl)cc2Cl)n1` [CHIR99021], the “expression of CD184 in CD34+HSPCs” value in test [1] is given as “can enhance the expression of CD184”.
